How the values were obtained:
[1] = system: DNA; assay: Binding affinity to calf thymus DNA assessed as change in melting temperature at 30 uM by UV-visible spectrophotometry; assay type: nucleic-acid assay; details: Bos taurus
[2] = Inhibition of beta-hematin formation at 1 mg/ml; assay type: functional
[3] = system: Sindbis virus; assay: Antiviral activity against Sindbis virus infected in african green monkey Vero cells assessed as reduction of virus-induced cytopathogenicity; assay type: functional, organism-based
[4] = system: Influenza A virus; assay: Antiviral activity against influenza A virus H1N1 subtype infected in dog MDCK cells assessed as reduction of virus-induced cytopathogenicity by MTS assay; assay type: functional, organism-based
[5] = system: Human alphaherpesvirus 3; assay: Antiviral activity against TK-positive Varicella-zoster virus OKA infected in human HEL cells assessed as reduction of plaque formation; assay type: functional, cell-based; details: Human alphaherpesvirus 3, strain Oka vaccine
[6] = system: Human alphaherpesvirus 3; assay: Antiviral activity against […] Varicella-zoster virus 07-1 infected in human HEL cells assessed as reduction of plaque formation; assay type: functional, organism-based; details: Human alphaherpesvirus 3, 07-1, HEL
[7] = system: Felid alphaherpesvirus 1; assay: Antiviral activity against feline herpesvirus infected in cat CRFK cells assessed as reduction of virus-induced cytopathogenicity by MTS assay; assay type: functional, organism-based; details: Felid alphaherpesvirus 1, CRFK
[8] = system: Influenza B virus; assay: Antiviral activity against influenza B virus infected in dog MDCK cells assessed as reduction of virus-induced cytopathogenicity by MTS assay; assay type: functional, organism-based
[9] = Selectivity index, ratio of CC50 for MDCK cells to IC50 for chloroquine-resistant Plasmodium falciparum Dd2; assay type: functional
[10] = system: Coxsackievirus; assay: Antiviral activity against Coxsackievirus B4 infected in african green monkey Vero cells assessed as reduction of virus-induced cytopathogenicity; assay type: functional, organism-based
[11] = system: Vesicular stomatitis virus; assay: Antiviral activity against Vesicular stomatitis virus infected in human HEL cells assessed as reduction of virus-induced cytopathogenicity; assay type: functional, organism-based
[12] = system: Human respirovirus 3; assay: Antiviral activity against Parainfluenza-3 virus infected in african green monkey Vero cells assessed as reduction of virus-induced cytopathogenicity; assay type: functional, organism-based; details: Human respirovirus 3, Vero
[13] = system: Human alphaherpesvirus 1; assay: Antiviral activity against Herpes simplex virus-1 KOS infected in human HEL cells assessed as reduction of virus-induced cytopathogenicity; assay type: functional, organism-based; details: Human alphaherpesvirus 1, KOS
[14] = Cytotoxicity against cat CRFK cells; assay type: cell-based, Felis catus
[15] = system: Influenza A virus; assay: Antiviral activity against influenza A virus […] subtype infected in dog MDCK cells assessed as reduction of virus-induced cytopathogenicity by MTS assay; assay type: functional, organism-based; details: read-out: EC50
[16] = system: Respiratory syncytial virus; assay: Antiviral activity against Respiratory syncytial virus infected in human HeLa cells assessed as reduction of virus-induced cytopathogenicity; assay type: functional, organism-based
[17] = system: Human alphaherpesvirus 2; assay: Antiviral activity against Herpes simplex virus-2 G infected in human HEL cells assessed as reduction of virus-induced cytopathogenicity; assay type: functional, organism-based; details: Human alphaherpesvirus 2, strain G
[18] = system: Coxsackievirus; assay: Antiviral activity against Coxsackievirus B4 infected in human HeLa cells assessed as reduction of virus-induced cytopathogenicity; assay type: functional, organism-based
[19] = system: Feline coronavirus; assay: Antiviral activity against Feline coronavirus infected in cat CRFK cells assessed as reduction of virus-induced cytopathogenicity by MTS assay; assay type: functional, organism-based; details: Alphacoronavirus 1, CRFK
[20] = system: Plasmodium falciparum; assay: Antimalarial activity against chloroquine-sensitive Plasmodium falciparum D10 by two-fold dilution technique; assay type: functional, organism-based
[21] = (§1) Cytotoxicity against MDCK cells assessed as cell viability after 4 days by MTS assay; assay type: cell-based, Canis lupus familiaris; details: dog, MDCK cells
[22] = Cytotoxicity against african green monkey Vero cells; assay type: cell-based; details: chlorocebus sabaeus
[23] = system: Human alphaherpesvirus 1; assay: Antiviral activity against TK-negative Herpes simplex virus 1 KOS infected in human HEL cells assessed as reduction of virus-induced cytopathogenicity; assay type: functional, organism-based; details: Human alphaherpesvirus 1, KOS
[24] = system: Mammalian orthoreovirus 1; assay: Antiviral activity against Reovirus-1 infected in african green monkey Vero cells assessed as reduction of virus-induced cytopathogenicity; assay type: functional, organism-based; details: Mammalian orthoreovirus 1, Vero
[25] = Cytotoxicity against human HEL cells; assay type: cell-based
[26] = system: Cytomegalovirus; assay: Antiviral activity against Cytomegalovirus AD-169 infected in human HEL cells assessed as reduction of plaque formation; assay type: functional, organism-based; details: Human betaherpesvirus 5, AD-169, HEL
[27] = system: Punta Toro virus; assay: Antiviral activity against […] infected in african green monkey Vero cells assessed as reduction of virus-induced cytopathogenicity; assay type: functional, organism-based
[28] = system: Cytomegalovirus; assay: Antiviral activity against Cytomegalovirus Davis infected in human HEL cells assessed as reduction of plaque formation; assay type: functional, organism-based; details: Human betaherpesvirus 5, Davis
[29] = system: Plasmodium falciparum; assay: Antimalarial activity against chloroquine-resistant Plasmodium falciparum Dd2; assay type: functional, organism-based
[30] = Cytotoxicity against human HeLa cells; assay type: cell-based
[31] = system: Vesicular stomatitis virus; assay: Antiviral activity against Vesicular stomatitis virus infected in human HeLa cells assessed as reduction of virus-induced cytopathogenicity; assay type: functional, organism-based
[32] = system: MDCK; assay: as §1; assay type: cell-based, Canis lupus familiaris; details: dog, mdck, 96 h
[33] = system: DNA; assay: Binding affinity to calf thymus DNA assessed as compound DNA intercalation measured as hypochromatic shift at 330 nm at 30 uM by UV-visible spectrophotometry; assay type: nucleic-acid assay; details: Bos taurus
[34] = system: Heme; assay: Binding affinity to monomeric heme (unknown origin) in MES buffer at pH 5.6 at 1 to 25 uM by UV-visible spectrophotometry
[35] = system: DNA; assay: Binding affinity to calf thymus DNA assessed as compound DNA intercalation measured as hypochromatic shift at 255 nm at 30 uM by UV-visible spectrophotometry; assay type: nucleic-acid assay; details: Bos taurus
[36] = system: DNA; assay: Binding affinity to calf thymus DNA at 30 uM by fluorescence assay; assay type: nucleic-acid assay; details: Bos taurus
[37] = system: Escherichia coli; assay: Binding affinity to Escherichia coli pUC18 DNA at 30 uM by fluorescence assay
[38] = system: mu-oxodimeric heme; assay: Binding affinity to mu-oxodimericheme (unknown origin) in phosphate buffer at pH 5.8 at 1 to 25 uM by UV-visible spectrophotometry
[39] = system: Heme; assay: Binding affinity to monomeric heme (unknown origin) in HEPES buffer at pH 7.4 at 1 to 25 uM by UV-visible spectrophotometry

Row | SMILES | inhibition [2] [%] | EC50 [3] [µM] | EC50 [4] [µM] | EC50 [5] [µM] | EC50 [6] [µM] | EC50 [7] [µM] | EC50 [8] [µM] | Ratio CC50/IC50 [9] | EC50 [10] [µM] | EC50 [11] [µM] | EC50 [12] [µM] | EC50 [13] [µM] | EC50 [15] [µM] | EC50 [16] [µM] | EC50 [17] [µM] | EC50 [18] [µM] | EC50 [19] [µM] | MCC at 96 h [21] [nM] | MCC [22] [µM] | EC50 [23] [µM] | further results
1 | CCN(CC)CCCC(C)Nc1ccnc2cc(Cl)ccc12 (configuration not stated) | 98 | – | – | – | – | – | – | – | – | – | – | – | – | – | – | – | – | – | – | – | ΔTm [1]: 9 °C
2 | CCOC(=O)c1cnc(NCCCCNc2ccnc3cc(Cl)ccc23)nc1C | 58 | > 20 | > 4 | > 20 | > 20 | > 100 | > 4 | 30.65 | > 20 | > 100 | > 20 | > 100 | > 4 | > 20 | > 100 | > 20 | > 100 | ≥ 4000 | 100 | > 100 | CC50 ([14]; CRFK cells): > 100 µM; IC50 [20]: 0.211 µM; CC50 at 96 h [21]: 10.3 µM; EC50 [24]: > 20 µM; MCC [25]: ≥ 100 µM; EC50 [26]: > 20 µM; EC50 [27]: > 20 µM; EC50 [28]: > 20 µM; IC50 [29]: 0.336 µM; MCC [30]: 100 µM; EC50 [31]: > 20 µM
3 | COC(=O)c1c(C)nc(NCCCNc2ccnc3cc(Cl)ccc23)nc1-c1ccccc1 | 46 | > 4 | > 0.16 | > 4 | > 4 | > 20 | > 0.16 | 3.13 | > 4 | > 20 | > 4 | > 20 | > 0.16 | > 20 | > 20 | > 20 | 1.1 | 800 | 20 | > 20 | CC50 ([14]; crfk): 25.1 µM; IC50 [20]: 0.659 µM; CC50 [32]: 1.7 µM; EC50 [24]: > 4 µM; MCC [25]: ≥ 20 µM; EC50 [26]: 10.9 µM; EC50 [27]: > 4 µM; EC50 [28]: 15.3 µM; IC50 [29]: 0.542 µM; MCC [30]: 100 µM; EC50 [31]: > 20 µM
4 | Cc1nc(NCCCCNc2ccnc3cc(Cl)ccc23)nc(-c2ccccc2)c1C(=O)OC(C)C | 72 | > 4 | > 0.16 | 4 | > 4 | > 20 | > 0.16 | 3.92 | > 4 | > 4 | > 4 | > 4 | > 0.16 | > 100 | > 4 | > 100 | > 20 | 800 | 20 | > 4 | Activity [33]: 37%; log K [34]: 4.58; Activity [35]: 112%; log K [36]: 5.76; CC50 ([14]; crfk): 50.6 µM; log K [37]: 5.73; ΔTm [1]: 7.5 °C; log K [38]: 5.72; CC50 [32]: 0.6 µM; log K [39]: 4.96; EC50 [24]: > 4 µM; MCC [25]: 20 µM; EC50 [26]: > 4 µM; EC50 [27]: > 4 µM; EC50 [28]: > 4 µM; IC50 [29]: 0.153 µM; MCC [30]: > 100 µM; EC50 [31]: > 100 µM

— ChEMBL document CHEMBL2417501, “Synthesis of 4-aminoquinoline-pyrimidine hybrids as potent antimalarials and their mode of action studies” (Eur J Med Chem, 2013)
